B1: His6-Q9I5H3 (natural protein)
chain: MRILLVEDHPQLAESVVQALKGAGWTVDLLQDGVAADLALASEEYALAILDVGLPRMDGFEVLARLRGRGKTLPVLMLTARGEVKDRVHGLNLGADDYLAKPFELSELEARVKALLRRSVLGGEQLQRCGALVYDLGTRRFSLDEQPLTLTSREQAVLEAMIARPGRVMSKEQLAAQVFGLDEEASADAIEIYVHRLRKKLEGGAVRIVTFRGLGYLLEAQGD
notes: also called recombinant Q9I5H3 protein; PA0756; source: E. coli BL21 (pET28a), purified (His-Trap FF IMAC; gel filtration on Superdex 75)
B2: MexAB-OprM (MexA) promoter target duplex (dsDNA)
DNA 1: CGAGTAAACCTAATGTAAATGTGGTTGATC
DNA 2: GATCAACCACATTTACATTAGGTTTACTCG

Where no end group is shown, it is not given here. [ ]: non-standard residue; d: D form.

For one data set, the target named is Q9I5H3. The data set is described as follows: Fluorescence binding titration of Q9I5H3 dimer with Esc(1-21)-1c. Details: species or system P. aeruginosa. The conditions noted are these: intrinsic protein fluorescence, λexc 280 nm, emission 337 nm; 35 μM Q9I5H3 dimer, peptide 1.5 to 50 µM; 50 mM Tris-HCl pH 8.0, 150 mM NaCl, 20 °C; duplicate; one site specific binding fit; read-out: dissociation constant of the Esc(1-21)-1c–Q9I5H3 complex. Here is the method: The interaction of the Esc(1-21)-1c peptide with Q9I5H3 was experimentally evaluated by fluorescence-based binding experiments. The dimeric form of the Q9I5H3 protein, purified by gel filtration, was titrated with increasing concentrations of Esc(1-21)-1c, and changes in the fluorescence emission of the protein were monitored (Figure 5).
Fluorescence experiments were performed on a Fluoromax-4 spectrofluorometer from Horiba Scientific, Piscataway, NJ, USA, using 1 cm optical path-length quartz cell under controlled temperature conditions (Peltier control system at 20 °C). Titrations were carried out in 50 mM Tris-HCl, pH 8.0 and 150 mM NaCl. Excitation wavelength used for the fluorescence titrations was 280 nm, and the spectra were recorded in the range 300–500 nm (slit 3 nm). Titrations were carried out at a fixed concentration (35 μM) of Q9I5H3 by adding increasing amounts of Esc(1-21)-1c peptide (from 1.5 to 50 µM), and the fluorescence emission was monitored at 337 nm. The experiments were performed in duplicate. The change in the fluorescence intensity was reported as a function of the peptide concentration and the data fitted with the “one site specific binding” equation of GraphPad Prism 9 (GraphPad Software LLC, La Jolla, CA, USA).

The next data set has as its system Q9I5H3–DNA complex. The data set is described as follows: EMSA competition assay, Q9I5H3 binding to MexAB–OprM promoter DNA duplex. The class given is biochemical, P. aeruginosa. The conditions noted are these: 30 μM Q9I5H3 pre-incubated with peptide (50 to 250 μM) 10 min at 25 °C, then 0.05 µM target DNA duplex for 20 min; 1.5% agarose gel, GelRed. Here is the method:
The putative effect of the Esc(1-21)-1c peptide on the Q9I5H3–DNA interaction was investigated by a competition assay in which the recombinant Q9I5H3 protein was pre-incubated with increasing concentrations of the peptide before adding the DNA probe. The protein–DNA complexes in the presence of different concentrations of Esc(1-21)-1c were again examined by EMSA.
The interaction of Q9I5H3 protein with DNA was investigated by EMSA experiments using the target DNA duplex as well as a control duplex-forming sequence generally used as a model of standard B-DNA duplex, the so-called Dickerson dodecamer (Supplementary Table S1). Sense and antisense oligonucleotides were annealed by incubation at 95 °C for 5 min and then gradual cooling to room temperature. Different concentrations of proteins were incubated with the DNA duplexes (0.05 µM) for 30 min at 25 °C in 20 µL of 25 mM HEPES pH 7.6, containing 50 mM KCl, 12.5 mM MgCl2, 1 mM DTT, 20% glycerol, 0.1% Triton.
For the assays, 30 μM of protein was pre-incubated with increasing concentrations of Esc(1-21)-1c for 10 min at 25 °C. Following this pre-incubation, the DNA duplex was added, and the mixture was incubated for additional 20 minutes under standard EMSA conditions.
All samples were separated on 1.5% agarose gel in Tris-borate-EDTA (TBE) running buffer at room temperature, using GelRed as dye. […]
A general note: In EMSA bound probe runs differently from free probe, usually more slowly.

Data set [1] concerns MexA, MexB, and OprM proteins. The settings on record: sub-MIC dosages; cited from earlier work. The text has this: In the past years, we characterized the biological properties of a derivative of the frog-skin AMP esculentin-1a, namely Esc(1-21)-1c of sequence GIFSKLAGKKIKN^dLLI^dSGLKG-NH2 containing two D-amino acids, i.e., Leu14 and Ser17. […] Therefore, in-depth investigations are imperative to unravel the specific molecular mechanisms accounting for the downregulation of MexAB efflux pump by Esc(1-21)-1c. Here, we explored the intracellular mechanism of Esc(1-21)-1c at the molecular level by the identification of its putative interactors in P. aeruginosa. Functional proteomics approaches allowed us to ident ...

The next data set relates to P. aeruginosa biofilm. The settings on record: levels below the MIC; cited from earlier work. The source says: (§1) In the past years, we characterized the biological properties of a derivative of the frog-skin AMP esculentin-1a, namely Esc(1-21)-1c of sequence GIFSKLAGKKIKN^dLLI^dSGLKG-NH2 containing two D-amino acids, i.e., Leu14 and Ser17. […] Furthermore, very recent studies have provided new insights into the global impact of Esc (1-21)-1c on P. ...

For a further data set, the system named is P. aeruginosa. The settings on record: levels below the MIC; cited from earlier work.
Text: as §1

For the data set “His6-Q9I5H3”, the target named is B1. The data set can be described thus: other fluorescence titration; intrinsic protein fluorescence (excitation 280 nm, emission 337 nm); 35 μM Q9I5H3 (dimeric form from gel filtration) fixed, Esc(1-21)-1c added from 1.5 to 50 µM; 50 mM Tris-HCl pH 8.0, 150 mM NaCl, 20 °C; duplicate; one site specific binding fit. The settings on record: both partners purified.

Data set [2] concerns the molecule itself. The data set is described as follows: SEC; Superdex 75 10/300 GL calibrated with standard proteins; 50 mM Tris-HCl pH 8.0, 150 mM NaCl; peaks at 7.8 mL and 11.5 mL; monomer and dimer. (In general: SEC sorts molecules by how far they enter the pores of the column.)
Data set [3] addresses T1, Q9I5H3 (probable two-component response regulator, QseB homolog) (Pseudomonas aeruginosa, UniProt Q9I5H3 1-223).
T1 sequence: B1 chain
The data set can be described thus: EMSA; protein 5-70 uM, DNA 0.05 uM. The conditions noted are these: protein: recombinant; tags: N-terminal His6 (pET28a); chain copies: 2; label: none (GelRed stain); blunt.

Consider four molecules from publication PMC12563431, “The Esc(1-21)-1c Antimicrobial Peptide Inhibits a Specific Transcriptional Activator of the MexAB–OprM Efflux Pump in P. aeruginosa” (International Journal of Molecular Sciences, 2025).

For orientation: stoichiometry N means the number of molecules, sites or subunits per partner or assembly.

For the molecule “GIFSKLAGKKIKN^dLLI^dSGLKG-NH2 [Esc(1-21)-1c, derivative of the frog-skin AMP esculentin-1a containing two D-amino acids, Leu14 and Ser17]”, the Kd on Q9I5H3 came to 10 ± 0.98 µM. Moreover, in the data set with Q9I5H3–DNA complex, the “peptide concentration at which the shifted Q9I5H3–DNA complex band completely disappeared” value stood at 200 µM. In addition, the “effect on MexA, MexB, and OprM proteins” value in data set [1] is “significant downregulatory effect”. Also, the “effect on P. aeruginosa biofilm formation” value in the data set with P. aeruginosa biofilm is reported as “capability to prevent P. aeruginosa biofilm formation”. Besides, in the data set with P. aeruginosa, the “effect with the antibiotic Aztreonam in inhibiting growth and killing P. aeruginosa” value is reported as “synergic effect”.
Turning to GIFSKLAGKKIKN[dL]LI[dS]GLKG-NH2 (also called Esc(1-21)-1c peptide; AMP) [Esc(1-21)-1c], the Kd with His6-Q9I5H3 stood at 10 ± 0.98 µM.
With B1, the “stoichiometry N” value in data set [2] came out at 2.
Regarding B2, in data set [3], the binding result is on record as “binds”.
